Data: patent publication US9278958B2, “Anti-cancer compounds” (KATHOLIEKE UNIVERSITEIT LEUVEN, priority 2012, dated 2016)
Read-outs that look alike come from different tables or passages of the source.

Tests used:
[1] = system: Caki-1 kidney carcinoma cells; assay: Cytostatic assay, Caki-1; format: cell-based; conditions: Homo sapiens, Table 3
Summary of the method: (§1)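 Proliferation under compound exposure was measured by counting cells (Coulter) after 48 h to 96 h at 37° C; the period varied with the line. Starting density was 5-7.5×10^4 cells per well in a humidified CO2 atmosphere.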

[2] = system: protein synthesis in Raji cells; assay: Antimetabolic activity assay, [4,5-3H]leucine incorporation (protein synthesis), Raji; format: cell-based; conditions: Homo sapiens, incorporation into TCA-insoluble material
Method: [The procedure below names another cell line; the source lists this cell line under the same test.] (§2) Radiolabeled precursors of DNA synthesis ([^3H-methyl]dThd), RNA synthesis ([5-^3H]Urd), and protein synthesis ([4,5-^3H]leu) were added to 10^5 CEM cell cultures in the 200 μl-wells of a microtiter plate at 1 μCi for each precursor in the presence of varying concentrations of the test compounds (5-fold dilution series). The cells were allowed to proliferate for 20 hrs at 37° C. in a humidified, CO2-controlled atmosphere. At the end of the incubation period, the contents of the wells were brought onto 25-mm glass fiber filters and further processed for measurement of acid-insoluble radioactivity.

[3] = system: RNA synthesis in CEM cells; assay: Antimetabolic activity assay, [5-3H]uridine incorporation (RNA synthesis), CEM; format: cell-based; conditions: Homo sapiens, CCRF-CEM, incorporation into TCA-insoluble material
Method: as §2

[4] = system: 22Rv1 (UZ) prostate cancer cells; assay: Cytostatic assay, 22Rv1 (UZ); format: cell-based; conditions: Homo sapiens, Table 4
Summary of the method: as §1

[5] = system: HOS CD4+ osteosarcoma cells; assay: Cytostatic assay, HOS CD4+; format: cell-based; conditions: Homo sapiens; Table 3
Method: (§3) To each well of a 96-well microtiter plate were added 5-7.5×10^4 cells and a given amount of the test compound. The cells were allowed to proliferate for 48 h to 96 h (depending on the nature of the cell line) at 37° C. in a humidified CO2-controlled atmosphere. At the end of the incubation period, the cells were counted in a Coulter Counter (Coulter Electronics Ltd, Harpenden Herts, United Kingdom).

CEM cells = assay: Cytostatic assay, CEM; format: cell-based; conditions: Homo sapiens, CCRF-CEM
Summary of the method: as §1

HepG2C3A hepatoma cells = assay: Cytostatic assay, HepG2C3A; format: cell-based; conditions: Homo sapiens, HepG2/C3A; Table 4
Summary of the method: as §1

Sup T1 cells = assay: Cytostatic assay, Sup T1; format: cell-based; conditions: Homo sapiens, Table 2, read-out: Cytostatic activity (μM) Sup T 1
Summary of the method: as §1

[6] = system: THP-1, human monocytic cells; assay: Cytostatic assay, THP-1; format: cell-based; conditions: Table 2
Summary of the method: as §1

BPH-1 (UZ) = assay: Cytostatic assay, BPH-1 (UZ); format: cell-based; conditions: Homo sapiens, Table 4
Summary of the method: as §1

[7] = system: PC-3 (UZ) prostate cancer cells; assay: Cytostatic assay, PC-3 (UZ); format: cell-based; conditions: Table 4
Summary of the method: as §1

[8] = system: protein synthesis in CEM cells; assay: Antimetabolic activity assay, [4,5-3H]leucine incorporation (protein synthesis), CEM; format: cell-based; conditions: Homo sapiens, CCRF-CEM, incorporation into TCA-insoluble material
Method: as §2

[9] = system: DU145 (UZ) prostate cancer cells; assay: Cytostatic assay, DU145 (UZ); format: cell-based; conditions: Homo sapiens, DU-145; Table 4
Summary of the method: as §1

[10] = system: RNA synthesis in Raji cells; assay: Antimetabolic activity assay, [5-3H]uridine incorporation (RNA synthesis), Raji; format: cell-based; conditions: Homo sapiens, incorporation into TCA-insoluble material
Method: [The procedure below names another cell line; the source lists this cell line under the same test.] as §2

[11] = system: OST TK- osteosarcoma cells; assay: Cytostatic assay, OST TK-; format: cell-based; conditions: Homo sapiens; Table 3
Summary of the method: as §1

U87 glioma cells = assay: Cytostatic assay, U87; format: cell-based; conditions: Homo sapiens, U-87 MG; Table 3
Summary of the method: as §1

PLC/PRF/5 hepatoma cells = assay: Cytostatic assay, PLC/PRF/5; format: cell-based; conditions: Homo sapiens, Table 4
Summary of the method: as §1

[12] = system: Caki-2 kidney carcinoma cells; assay: Cytostatic assay, Caki-2; format: cell-based; conditions: Homo sapiens, Table 3
Summary of the method: as §1

[13] = system: HeLa cervix carcinoma cells; assay: Cytostatic assay, HeLa; format: cell-based, human; conditions: Homo sapiens; Table 3; read-out: Cytostatic activity (μM) Hela
Summary of the method: as §1

[14] = system: HL60, human leukemia cells; assay: Cytostatic assay, HL-60; format: cell-based; conditions: Table 2
Summary of the method: as §1

C8166 cells = assay: Cytostatic assay, C8166; format: cell-based; conditions: Homo sapiens, Table 2
Summary of the method: as §1

Molt4/C8 cells = assay: Cytostatic assay, Molt4/C8; format: cell-based; conditions: Table 2
Summary of the method: as §1

HUT-78 cells = assay: Cytostatic assay, HUT-78; format: cell-based; conditions: Homo sapiens, HuT78; Table 2
Summary of the method: as §1

MT-2 cells = assay: Cytostatic assay, MT-2; format: cell-based; conditions: Homo sapiens, MT2; Table 2
Summary of the method: as §1

[15] = system: Raji, human B-lymphoma cells; assay: Cytostatic assay, Raji; format: cell-based; conditions: Table 2
Summary of the method: as §1

[16] = system: U937, human monocytic cells; assay: Cytostatic assay, U937; format: cell-based; conditions: U-937, Table 2
Summary of the method: as §1

[17] = system: U87 CD4+/CXCR4+/CCR5+ glioma cells; assay: Cytostatic assay, U87 CD4+/CXCR4+/CCR5+; format: cell-based; conditions: Homo sapiens, Glioma cell; Table 3
Method: as §3

[18] = system: PNT1A (UZ) prostate cells; assay: Cytostatic assay, PNT1A (UZ); format: cell-based; conditions: Homo sapiens, Table 4
Summary of the method: as §1

[19] = system: HEL embryonic lung fibroblast cells; assay: Cytostatic assay, HEL; format: cell-based; conditions: Homo sapiens, Table 3
Summary of the method: as §1

[20] = system: DNA synthesis in Raji cells; assay: Antimetabolic activity assay, [CH3-3H]dThd incorporation (DNA synthesis), Raji; format: cell-based; conditions: Homo sapiens, incorporation into TCA-insoluble material
Method: [The procedure below names another cell line; the source lists this cell line under the same test.] as §2

[21] = system: MCF-7 mammary carcinoma cells; assay: Cytostatic assay, MCF-7; format: cell-based; conditions: Homo sapiens, MCF7; Table 3
Summary of the method: as §1

MT-4 cells = assay: Cytostatic assay, MT-4; format: cell-based; conditions: Homo sapiens, MT4; Table 2
Summary of the method: as §1

[22] = system: PC3 (rega) prostate cancer cells; assay: Cytostatic assay, PC3 (rega); format: cell-based; conditions: Table 4
Summary of the method: as §1

[23] = system: BAEC aortic endothelial cells; assay: Cytostatic assay, BAEC; format: cell-based, bovine; conditions: Bos taurus, Table 3
Summary of the method: as §1

[24] = system: broad variety of tumor cell lines; assay: Cytostatic assays, summary over the panel of cell lines (Tables 2-4); format: cell-based
Method: as §3

Huh-7 hepatoma cells = assay: Cytostatic assay, Huh-7; format: cell-based; conditions: Homo sapiens, Table 4
Summary of the method: as §1

[25] = system: HT29 colorectal carcinoma cells; assay: Cytostatic assay, HT29; format: cell-based; conditions: Homo sapiens, HT-29; Table 3
Summary of the method: as §1

[26] = system: 293T embryonic kidney cells; assay: Cytostatic assay, 293T; format: cell-based; conditions: Homo sapiens, HEK-293T; Table 3
Summary of the method: as §1

[27] = system: DNA synthesis in CEM cells; assay: Antimetabolic activity assay, [CH3-3H]dThd incorporation (DNA synthesis), CEM; format: cell-based; conditions: Homo sapiens, CCRF-CEM, incorporation into TCA-insoluble material
Method: as §2

[28] = system: Daudi, human B-lymphoma cells; assay: Cytostatic assay, Daudi; format: cell-based; conditions: Table 2
Method: as §3

[29] = system: LNCaP (UZ) prostate cancer cells; assay: Cytostatic assay, LNCaP (UZ); format: cell-based; conditions: Homo sapiens, Table 4
Summary of the method: as §1

[30] = system: FM3A mammary carcinoma cells; assay: Cytostatic assay, FM3A; format: cell-based, murine; conditions: Mus musculus, Table 3
Summary of the method: as §1

L1210 cells = assay: Cytostatic assay, L1210; format: cell-based; conditions: Mus musculus, Table 2
Summary of the method: as §1

[31] = Table 1a, read-out: IC50 μM (CEM)
[32] = Table 2, read-out: Cytostatic activity (μM) CEM

For `COC(=O)c1cc(CCc2ccccc2OC)sc1N` [TR567, 2-Amino-5-[2-(2-methoxy-phenyl)-ethyl]-thiophene-3-carboxylic acid methyl ester], the IC50 [1] was 3.7 ± 1.8 µM, the IC50 [2] was 45 ± 8 µM and the IC50 [3] was 2.6 ± 0.6 µM. The IC50 [4] was 5.7 ± 2.8 µM, the IC50 [5] was 23 ± 4.2 µM and the IC50 (CEM cells; [31]) was 1.8 µM. It also gave an IC50 (CEM cells; [32]) of 1.8 ± 0.92 µM, an IC50 (HepG2C3A hepatoma cells) of 8.6 ± 0.28 µM and an IC50 (Sup T1 cells) of 1.5 µM. It also gave an IC50 [6] of 13 ± 1.4 µM, an IC50 (BPH-1 (UZ)) of 39 ± 2.8 µM and an IC50 [7] of 1.4 ± 0.071 µM. The IC50 [8] was 1.4 ± 0.9 µM, the IC50 [9] was 11 ± 7 µM and the IC50 [10] was 68 ± 8 µM. The IC50 [11] was 7.6 ± 2.4 µM, the IC50 (U87 glioma cells) was 38 µM and the IC50 (PLC/PRF/5 hepatoma cells) was 18 ± 4.2 µM. It also gave an IC50 [12] of 4.5 ± 1.9 µM, an IC50 [13] of 17 ± 2.1 µM and an IC50 [14] of 4 ± 3.3 µM. It also gave an IC50 (C8166 cells) of 3 ± 0.21 µM, an IC50 (Molt4/C8 cells) of 0.81 ± 0.49 µM and an IC50 (HUT-78 cells) of 13 ± 4.2 µM. The IC50 (MT-2 cells) was 2.1 ± 0.071 µM, the IC50 [15] was 19 ± 4.2 µM and the IC50 [16] was 10 ± 0.85 µM. The IC50 [17] was 32 ± 2.1 µM, the IC50 [18] was 17 ± 2.8 µM and the IC50 [19] was 20 ± 7.8 µM. For the same molecule, the IC50 [20] was 54 ± 8 µM, the IC50 [21] was 22 ± 3.5 µM and the IC50 (MT-4 cells) was 14 ± 2.8 µM. For the same molecule, the IC50 [22] was 0.71 ± 0.28 µM, the IC50 [23] was 20 ± 4.2 µM and the IC50 ([24]; Homo sapiens, HuT78, range for the seven compounds, MT-4 and HUT-78 cells, read-out: IC50 range, cytostatic activity against MT-4 and HUT-78 cells) was 8500 to 60000 nM. For the same molecule, the IC50 ([24]; range for the seven compounds against the 5 tumor cell lines, read-out: IC50 range, cytostatic activity against CEM, Molt4/C8, Sup T1, MT-2 and C8166 cells) was 220 to 3400 nM, the IC50 (Huh-7 hepatoma cells) was 3.4 ± 1.2 µM and the IC50 [25] was 17 ± 7.8 µM. For the same molecule, the IC50 [26] was 22 ± 15 µM, the IC50 [27] was 6.4 ± 4.1 µM and the IC50 [28] was 13 ± 0.71 µM. It also gave an IC50 [29] of 0.43 ± 0.14 µM and an IC50 [30] of 37 ± 0.71 µM.
With `COc1ccc(OC)c(CCc2cc(C#N)c(N)s2)c1` [TR589, 2-Amino-5-[2-(2,5-dimethoxy-phenyl)-ethyl]-thiophene-3-carbonitrile] the IC50 [1] was 0.016 ± 0.001 µM, the IC50 [2] was 39 ± 36 µM and the IC50 [3] was 44 ± 11 µM. For the same molecule, the IC50 [4] was less than 0.032 µM, the IC50 (CEM cells; [31]) was 0.015 µM and the IC50 (CEM cells; [32]) was 0.015 µM. For the same molecule, the IC50 (HepG2C3A hepatoma cells) was 0.29 ± 0.18 µM, the IC50 (Sup T1 cells) was 0.017 ± 0.012 µM and the IC50 [6] was 0.022 ± 0.003 µM. It also gave an IC50 (BPH-1 (UZ)) of less than 0.032 µM, an IC50 [7] of less than 0.032 µM and an IC50 [8] of 20 µM. For the same molecule, the IC50 [9] was 0.061 ± 0.016 µM, the IC50 [10] was 90 ± 14 µM and the IC50 (U87 glioma cells) was 0.038 ± 0.008 µM. For the same molecule, the IC50 (PLC/PRF/5 hepatoma cells) was 0.041 ± 0.013 µM, the IC50 [12] was 0.042 ± 0.004 µM and the IC50 (L1210 cells) was 0.064 ± 0.025 µM. It also gave an IC50 [13] of 0.13 ± 0.06 µM, an IC50 [14] of 0.024 ± 0.004 µM and an IC50 (C8166 cells) of 0.021 ± 0.009 µM. For the same molecule, the IC50 (Molt4/C8 cells) was 0.058 ± 0.056 µM, the IC50 (HUT-78 cells) was 0.062 ± 0.039 µM and the IC50 (MT-2 cells) was 0.027 ± 0.001 µM. It also gave an IC50 [15] of 0.063 ± 0.013 µM, an IC50 [16] of 0.036 ± 0.001 µM and an IC50 [18] of less than 0.032 µM. For the same molecule, the IC50 [19] was less than 0.032 µM, the IC50 [20] was no less than 100 µM and the IC50 [21] was 0.026 ± 0.0014 µM. It also gave an IC50 (MT-4 cells) of 0.086 ± 0.048 µM, an IC50 [22] of less than 0.032 µM and an IC50 [23] of less than 0.032 µM. The “fold more cytostatic than the corresponding -COOEt-containing compound 16b” value [24] was 50 fold, the IC50 ([24]; range over the cell lines of Tables 2-4, read-out: IC50 range (antiproliferative activity)) was 20 to 130 nM and the IC50 (Huh-7 hepatoma cells) was less than 0.16 µM. It also gave an IC50 [25] of 0.046 ± 0.012 µM, an IC50 [26] of less than 0.032 µM and an IC50 [27] greater than 100 µM. It also gave an IC50 [29] of less than 0.032 µM and an IC50 [30] of 0.05 ± 0.046 µM.
